Reference: the NIST ThermoML archive (doi:10.1016/j.jct.2015.05.006)

Assays:
[1] = xn = mol fraction of the nth substance listed; settings: Liquid, Vibrating tube method
[2] = relative permittivity at various frequencies (dimensionless); xn = mol fraction of the nth substance listed; settings: Liquid, Frequency=1 MHz, Parallel plate capacitor

COCCOC [1,2-dimethoxyethane] + CCCCCCCC
97.1 kPa
Settings	mass density, [1] [kg/m3]	relative permittivity, [2]
288.15 K, x2 = 0	872.06	7.41
288.15 K, x2 = 0.0493	857.73	–
288.15 K, x2 = 0.0502	–	6.79
288.15 K, x2 = 0.1011	843.79	–
288.15 K, x2 = 0.1035	–	6.21
288.15 K, x2 = 0.2005	–	5.31
288.15 K, x2 = 0.2032	819.39	–
288.15 K, x2 = 0.3015	–	4.54
288.15 K, x2 = 0.3036	798.48	–
288.15 K, x2 = 0.4019	780.49	–
288.15 K, x2 = 0.4024	–	3.92
288.15 K, x2 = 0.4964	–	3.45
288.15 K, x2 = 0.4992	764.69	–
288.15 K, x2 = 0.6022	–	3.01
288.15 K, x2 = 0.6046	749.52	–
288.15 K, x2 = 0.7031	–	2.67
288.15 K, x2 = 0.707	736.47	–
288.15 K, x2 = 0.8035	–	2.38
288.15 K, x2 = 0.8044	725.4	–
288.15 K, x2 = 0.9038	–	2.15
288.15 K, x2 = 0.9082	714.88	–
288.15 K, x2 = 0.9495	711.04	–
288.15 K, x2 = 0.9511	–	2.06
298.15 K, x2 = 0	861.17	7.07
298.15 K, x2 = 0.0487	–	6.5
298.15 K, x2 = 0.0493	847.03	–
298.15 K, x2 = 0.1004	–	5.97
298.15 K, x2 = 0.1011	833.26	–
298.15 K, x2 = 0.2032	809.21	–
298.15 K, x2 = 0.204	–	5.07
298.15 K, x2 = 0.3008	–	4.39
298.15 K, x2 = 0.3036	788.62	–
298.15 K, x2 = 0.4019	770.94	–
298.15 K, x2 = 0.4064	–	3.78
298.15 K, x2 = 0.4992	755.41	–
298.15 K, x2 = 0.5043	–	3.32
298.15 K, x2 = 0.6046	740.56	2.93
298.15 K, x2 = 0.7038	–	2.62
298.15 K, x2 = 0.707	727.79	–
298.15 K, x2 = 0.8039	–	2.35
298.15 K, x2 = 0.8044	716.95	–
298.15 K, x2 = 0.9008	–	2.14
298.15 K, x2 = 0.9082	706.67	–
298.15 K, x2 = 0.9495	702.91	–
298.15 K, x2 = 0.9516	–	2.04
308.15 K, x2 = 0	850.13	6.75
308.15 K, x2 = 0.0493	836.17	–
308.15 K, x2 = 0.0513	–	6.2
308.15 K, x2 = 0.1011	822.58	–
308.15 K, x2 = 0.1017	–	5.71
308.15 K, x2 = 0.203	–	4.88
308.15 K, x2 = 0.2032	798.9	–
308.15 K, x2 = 0.3025	–	4.23
308.15 K, x2 = 0.3036	778.63	–
308.15 K, x2 = 0.4019	761.25	–
308.15 K, x2 = 0.4021	–	3.69
308.15 K, x2 = 0.4992	746.01	–
308.15 K, x2 = 0.5006	–	3.25
308.15 K, x2 = 0.6029	–	2.87
308.15 K, x2 = 0.6046	731.48	–
308.15 K, x2 = 0.7028	–	2.57
308.15 K, x2 = 0.707	718.98	–
308.15 K, x2 = 0.802	–	2.32
308.15 K, x2 = 0.8044	708.4	–
308.15 K, x2 = 0.9027	–	2.11
308.15 K, x2 = 0.9082	698.35	–
308.15 K, x2 = 0.9493	–	2.03
308.15 K, x2 = 0.9495	694.71	–

COCCOC [1,2-dimethoxyethane] + CCCCCCCCCCCC
97 kPa
Settings	mass density, [1] [kg/m3]	relative permittivity, [2]
288.15 K, x2 = 0	872.06	7.41
288.15 K, x2 = 0.05	–	6.6
288.15 K, x2 = 0.0501	856.95	–
288.15 K, x2 = 0.101	843.87	–
288.15 K, x2 = 0.1013	–	5.92
288.15 K, x2 = 0.2007	–	4.89
288.15 K, x2 = 0.2009	823.2	–
288.15 K, x2 = 0.3011	807.11	–
288.15 K, x2 = 0.3016	–	4.13
288.15 K, x2 = 0.402	–	3.57
288.15 K, x2 = 0.4022	794.1	–
288.15 K, x2 = 0.5014	783.69	–
288.15 K, x2 = 0.5015	–	3.15
288.15 K, x2 = 0.6016	–	2.81
288.15 K, x2 = 0.6019	774.99	–
288.15 K, x2 = 0.6998	–	2.53
288.15 K, x2 = 0.7001	767.94	–
288.15 K, x2 = 0.8049	761.62	–
288.15 K, x2 = 0.8051	–	2.33
288.15 K, x2 = 0.9011	756.69	–
288.15 K, x2 = 0.9019	–	2.16
288.15 K, x2 = 0.9514	754.42	–
288.15 K, x2 = 0.9515	–	2.1
298.15 K, x2 = 0	861.17	7.07
298.15 K, x2 = 0.0499	846.45	–
298.15 K, x2 = 0.05	–	6.31
298.15 K, x2 = 0.1013	833.6	–
298.15 K, x2 = 0.102	–	5.66
298.15 K, x2 = 0.2014	–	4.71
298.15 K, x2 = 0.2016	813.45	–
298.15 K, x2 = 0.3016	–	4
298.15 K, x2 = 0.3019	797.83	–
298.15 K, x2 = 0.4011	–	3.48
298.15 K, x2 = 0.4015	785.4	–
298.15 K, x2 = 0.5059	774.85	–
298.15 K, x2 = 0.5061	–	3.06
298.15 K, x2 = 0.6021	766.88	–
298.15 K, x2 = 0.6047	–	2.75
298.15 K, x2 = 0.7021	760.01	–
298.15 K, x2 = 0.7033	–	2.51
298.15 K, x2 = 0.8048	754.06	–
298.15 K, x2 = 0.8055	–	2.31
298.15 K, x2 = 0.9024	–	2.15
298.15 K, x2 = 0.9025	749.21	–
298.15 K, x2 = 0.9491	747.21	–
298.15 K, x2 = 0.9498	–	2.09
308.15 K, x2 = 0	850.13	6.75
308.15 K, x2 = 0.0495	835.93	–
308.15 K, x2 = 0.05	–	6.04
308.15 K, x2 = 0.0982	824.01	–
308.15 K, x2 = 0.1018	–	5.44
308.15 K, x2 = 0.2021	803.62	–
308.15 K, x2 = 0.2026	–	4.53
308.15 K, x2 = 0.2982	789.08	–
308.15 K, x2 = 0.3027	–	3.87
308.15 K, x2 = 0.4018	776.58	–
308.15 K, x2 = 0.4043	–	3.38
308.15 K, x2 = 0.5024	766.76	–
308.15 K, x2 = 0.505	–	3
308.15 K, x2 = 0.6046	758.6	–
308.15 K, x2 = 0.6068	–	2.7
308.15 K, x2 = 0.6951	752.57	–
308.15 K, x2 = 0.7013	–	2.48
308.15 K, x2 = 0.8031	746.52	–
308.15 K, x2 = 0.806	–	2.28
308.15 K, x2 = 0.8975	–	2.14
308.15 K, x2 = 0.899	741.95	–
308.15 K, x2 = 0.9502	739.81	–
308.15 K, x2 = 0.9512	–	2.07
